Ki data for 27 compounds are collected here from US12110288B2, “MASP-2 inhibitors and methods of use” (Omeros Corporation, priority 2019, dated 2024).

By Ki is commonly meant a measure of affinity in units of concentration, obtained from inhibition or displacement. A higher Ki goes with a looser hold on the target.

Where a name gives a salt, the structure may show the parent alone.

In the assay the target is T1, MASP-2 (CCP1-CCP2-SP) (Homo sapiens, UniProt O00187).
T1 construct: 15 μL of Enzyme MASP-2 (CCP1-CCP2-SP) in Assay Buffer
T1 sequence (O00187 445-686 limits assumed): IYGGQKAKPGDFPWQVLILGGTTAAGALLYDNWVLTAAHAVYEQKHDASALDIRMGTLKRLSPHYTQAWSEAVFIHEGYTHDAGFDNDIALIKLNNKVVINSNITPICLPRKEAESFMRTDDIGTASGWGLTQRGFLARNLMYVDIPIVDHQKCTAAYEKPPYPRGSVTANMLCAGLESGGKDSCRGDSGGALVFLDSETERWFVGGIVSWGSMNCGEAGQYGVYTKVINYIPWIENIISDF
T1 sequence (O00187 298-444 partner limits assumed): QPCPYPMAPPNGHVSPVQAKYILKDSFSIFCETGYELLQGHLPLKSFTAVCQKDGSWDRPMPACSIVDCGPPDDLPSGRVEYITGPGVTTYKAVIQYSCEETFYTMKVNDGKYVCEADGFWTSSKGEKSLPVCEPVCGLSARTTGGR
Description: Enzymatic Assay for MASP-2. The assay is classed as biochemical. To be noted: fluorogenic substrate based on C2 cleavage site, room temperature, 20 mM HEPES pH 7.4. On the procedure: Enzymatic Assay for MASP-2
The MASP-2 assay utilizes a fluorogenic substrate, based on the cleavage site for its natural substrate C2. The assay is run at room temperature in an assay buffer containing 20 mM HEPES, pH 7.4, 140 mM NaCl and 0.1% Tween 20. Assay parameters are adjusted such that the assay is linear with respect to time, enzyme, and substrate concentrations. Under these optimized assays conditions, IC50 values are equivalent to Ki values, except in a few cases of “tight binding” inhibitors. Cases of “tight binding” or possible “slow binding” inhibitors are handled by the methods described in Copeland R. A. (2013) Evaluation of Enzyme Inhibitors in Drug Discovery. 2nd Ed., John Wiley and Sons, Inc., Chapters 5-7.
The MASP-2 assay protocol is carried out as follows. Test compounds are serially diluted in DMSO and then 100 nL of each dilution is transferred to the assay plate(s). 10 μL of Assay Buffer is added, followed by 15 μL of Enzyme MASP-2 (CCP1-CCP2-SP) in Assay Buffer. 15 μL of Substrate in Assay Buffer is then added and mixed to start the reactions. After 20 min at room temperature, 15 μL of a stop solution (0.1 M acetic acid) is added, mixed and the plates are read on a SpectraMax i3x Microplate Reader and exported as Excel files. Each assay plate included a “no inhibitor” (DMSO Only) control, a “no enzyme” control and a reference inhibitor control. % Activity values=100*(average test comp. fluorescence−average “no enzyme” fluorescence)/(average “DMSO only” fluorescence−average “no enzyme” fluorescence). IC50 and Ki values are very reproducible, falling well within ±2-fold.
`O=C(Cn1c(-c2ccccc2)cnc(NCC2(c3ccccc3F)COC2)c1=O)NCc1cc2cnccc2[nH]1` [Compound 62, N-((1H-Pyrrolo[3,2-c]pyridin-2-yl)methyl)-2-(3-(((3-(2-fluorophenyl)oxetan-3-yl)methyl)amino)-2-oxo-6-phenylpyrazin-1(2H)-yl)acetamide trifluoroacetate]: the Ki is under 500 nM.

Compound `Cc1ccc(C2(CNc3ncc(-c4ccccc4)n(CC(=O)NCc4cc5cnccc5[nH]4)c3=O)CC2)cc1` [Compound 63, N-((1H-Pyrrolo[3,2-c]pyridin-2-yl)methyl)-2-(2-oxo-6-phenyl-3-(((1-(p-tolyl)cyclopropyl)methyl)amino)pyrazin-1(2H)-yl)acetamide trifluoroacetate] came in with an inhibition constant (Ki) of under 500 nM.

Consider `O=C(Cn1c(-c2ccccc2)cnc(NCC2(c3cccc(F)c3)CC2)c1=O)NCc1cc2cnccc2[nH]1` [Compound 64, N-((1H-Pyrrolo[3,2-c]pyridin-2-yl)methyl)-2-(3-(((1-(3-fluorophenyl)cyclopropyl)methyl)amino)-2-oxo-6-phenylpyrazin-1(2H)-yl)acetamide], for which the Ki was under 500 nM.

Take `Cn1cc(-c2cnc(NCC3(c4ccc(Cl)cc4)CC3)c(=O)n2CC(=O)NCc2cc3cnccc3[nH]2)cn1` [Compound 65, N-((1H-Pyrrolo[3,2-c]Pyridin-2-yl)Methyl)-2-(3-(((1-(4-Chlorophenyl)Cyclopropyl)Methyl)Amino)-6-(1-Methyl-1H-Pyrazol-4-yl)-2-Oxopyrazin-1(2H)-yl)Acetamide Trifluoroacetate]: the Ki was under 500 nM.

As for `O=C(Cn1c(-c2ccccc2)cnc(NC2(c3ccccc3)CC2)c1=O)NCc1cc2cnccc2[nH]1` [Compound 66, N-((1H-Pyrrolo[3,2-c]pyridin-2-yl)methyl)-2-(2-oxo-6-phenyl-3-((1-phenylcyclopropyl)amino)pyrazin-1(2H)-yl)acetamide trifluoroacetate], the Ki was under 500 nM.

Regarding `Cc1cc2[nH]c(CNC(=O)Cn3c(-c4ccccc4)cnc(NCCc4ccccc4)c3=O)cc2cn1` [Compound 67, N-((6-Methyl-1H-Pyrrolo[3,2-c]Pyridin-2-yl)Methyl)-2-(2-Oxo-3-(Phenethylamino)-6-Phenylpyrazin-1(2H)-yl)Acetamide Trifluoroacetate], the inhibition constant Ki is under 500 nM.

As for `COc1cccc(C2(CNc3ncc(-c4ccccc4)n(CC(=O)NCc4cc5cnccc5[nH]4)c3=O)CC2)c1` [Compound 68, N-((1H-Pyrrolo[3,2-c]pyridin-2-yl)methyl)-2-(3-(((1-(3-methoxyphenyl)cyclopropyl)methyl)amino)-2-oxo-6-phenylpyrazin-1(2H)-yl)acetamide trifluoroacetate], the inhibition constant (Ki) is under 500 nM.

`O=C(Cn1c(-c2ccccc2)cnc(NCC2(c3ccc(Cl)cc3)CC2)c1=O)NCc1cnc2c(c1)CNC2` [Compound 69, 2-(3-(((1-(4-Chlorophenyl)Cyclopropyl)Methyl)Amino)-2-Oxo-6-Phenylpyrazin-1(2H)-yl)-N-((6,7-Dihydro-5H-Pyrrolo[3,4-5]Pyridin-3-yl)Methyl)Acetamide Trifluoroacetate] returned a Ki of under 500 nM.

Consider `O=C(Cn1c(-c2ccccc2)cnc(NCc2ccc(F)c(F)c2)c1=O)NCc1cc2cnccc2[nH]1` [Compound 70, N-((1H-Pyrrolo[3,2-c]pyridin-2-yl)methyl)-2-(3-((3,4-difluorobenzyl)amino)-2-oxo-6-phenylpyrazin-1(2H)-yl)acetamide trifluoroacetate], for which the inhibition constant Ki is under 500 nM.

Regarding `O=C(Cn1c(-c2ccccc2)cnc(NCC2(c3cccc(Cl)c3)CC2)c1=O)NCc1cc2cnccc2[nH]1` [Compound 71, N-((1H-Pyrrolo[3,2-c]pyridin-2-yl)methyl)-2-(3-(((1-(3-chlorophenyl)cyclopropyl)methyl)amino)-2-oxo-6-phenylpyrazin-1(2H)-yl)acetamide trifluoroacetate], the inhibition constant Ki was under 500 nM.

The compound `Cc1nccc2[nH]c(CNC(=O)Cn3c(-c4ccccc4)cnc(NCCc4ccccc4)c3=O)cc12` [Compound 72, trifluoroacetate] returned a Ki of under 500 nM.

`O=C(Cn1c(-c2ccccc2)cnc(NCc2ccc(Cl)cc2)c1=O)NCc1cc2cnccc2[nH]1` [Compound 73, N-((1H-Pyrrolo[3,2-c]pyridin-2-yl)methyl)-2-(3-((4-chlorobenzyl)amino)-2-oxo-6-phenylpyrazin-1(2H)-yl)acetamide trifluoroacetate]: the Ki was under 500 nM.

Compound `O=C(Cn1c(-c2ccccc2)cnc(NC2(c3ccc(F)c(F)c3)CC2)c1=O)NCc1cc2cnccc2[nH]1` [Compound 74, N-((1H-Pyrrolo[3,2-c]pyridin-2-yl)methyl)-2-(3-((1-(3,4-difluorophenyl)cyclopropyl)amino)-2-oxo-6-phenylpyrazin-1(2H)-yl)acetamide trifluoroacetate] came in with an inhibition constant Ki of under 500 nM.

In turn, `O=C(Cn1c(-c2ccccc2)cnc(NCc2cccc(Cl)c2)c1=O)NCc1cc2cnccc2[nH]1` [Compound 75, N-((1H-Pyrrolo[3,2-c]pyridin-2-yl)methyl)-2-(3-((3-chlorobenzyl)amino)-2-oxo-6-phenylpyrazin-1(2H)-yl)acetamide trifluoroacetate] registered an inhibitory constant (Ki) of under 500 nM.

`Cc1cc2[nH]c(CNC(=O)Cn3c(-c4ccccc4)cnc(NC4(c5ccccc5)CC4)c3=O)cc2cn1` [Compound 76, N-((6-Methyl-1H-pyrrolo[3,2-c]pyridin-2-yl)methyl)-2-(2-oxo-6-phenyl-3-((1-phenylcyclopropyl)amino)pyrazin-1(2H)-yl)acetamide trifluoroacetate]: the inhibitory constant (Ki) was under 500 nM.

The compound `COc1ccc(CNc2ncc(-c3ccccc3)n(CC(=O)NCc3cc4cnc(C)cc4[nH]3)c2=O)cc1` [Compound 77, 2-(3-((4-Methoxybenzyl)amino)-2-oxo-6-phenylpyrazin-1(2H)-yl)-N-((6-methyl-1H-pyrrolo[3,2-c]pyridin-2-yl)methyl)acetamide trifluoroacetate] yielded a Ki of under 500 nM.

With `Cn1cc(-c2cnc(NCCc3ccccc3)c(=O)n2CC(=O)NCc2cc3c(s2)CCNC3)cn1` [Compound 78, 2-(6-(1-Methyl-1H-Pyrazol-4-yl)-2-Oxo-3-(Phenethylamino)Pyrazin-1(2H)-yl)-N-((4,5,6,7-Tetrahydrothieno[3,2-c]Pyridin-2-yl)Methyl)Acetamide], the Ki lay in the range of 500 to 2500 nM.

In turn, `Cn1cc(-c2cnc(NCCc3ccccc3)c(=O)n2CC(=O)NCc2cc3c(s2)CNCC3)cn1` [Compound 79] returned an inhibitory constant (Ki) of under 500 nM.

With `Cn1cc(-c2cnc(NCCc3ccccc3)c(=O)n2CC(=O)NCc2ccc3c(c2)CCNC3)cn1` [Compound 80, 2-(6-(1-Methyl-1H-Pyrazol-4-yl)-2-Oxo-3-(Phenethylamino)Pyrazin-1(2H)-yl)-N-((1,2,3,4-Tetrahydroisoquinolin-6-yl)Methyl)Acetamide], the inhibition constant (Ki) lay within 2500 to 10000 nM.

As for `Cn1cc(-c2cnc(NCCc3ccccc3)c(=O)n2CC(=O)NCc2cnc3[nH]cc(Cl)c3c2)cn1` [Compound 81, N-((3-Chloro-1H-Pyrrolo[2,3-b]Pyridin-5-yl)Methyl)-2-(6-(1-Methyl-1H-Pyrazol-4-yl)-2-Oxo-3-(Phenethylamino)Pyrazin-1(2H)-yl)Acetamide], the Ki lay within 2500 to 10000 nM.

The compound `Cn1cc(-c2cnc(NCCc3ccccc3)c(=O)n2CC(=O)NCc2cnc3scc(Cl)c3c2)cn1` [Compound 82] displayed an inhibitory constant (Ki) of 2500 to 10000 nM.

`O=C(Cn1c(-c2ccccc2)cnc(NCCc2ccccc2)c1=O)NCc1cc2c(s1)CNCC2` [Compound 83, 2-(2-Oxo-3-(Phenethylamino)-6-Phenylpyrazin-1(2H)-yl)-N-((4,5,6,7-Tetrahydrothieno[2,3-c]Pyridin-2-yl)Methyl)Acetamide] showed a Ki of under 500 nM.

Regarding `Cc1nc(N)ccc1CNC(=O)Cn1c(-c2ccnc(N)c2)cnc(NCCc2ccccc2)c1=O` [Compound 84, N-((6-Amino-2-Methylpyridin-3-yl)Methyl)-2-(6-(2-Aminopyridin-4-yl)-2-Oxo-3-(Phenethylamino)Pyrazin-1(2H)-yl)Acetamide], the Ki was under 500 nM.

The compound `Cc1nc(N)ccc1CNC(=O)Cn1c(-c2cccc3cc[nH]c23)cnc(NCCc2ccccc2)c1=O` [Compound 85] had an inhibition constant (Ki) of under 500 nM.

Consider `O=C(Cn1c(-c2ccccc2F)cnc(NCCc2ccccc2)c1=O)NCc1cc2cnccc2[nH]1` [Compound 86, N-((1H-Pyrrolo[3,2-c]Pyridin-2-yl)Methyl)-2-(6-(2-Fluorophenyl)-2-Oxo-3-(Phenethylamino)Pyrazin-1(2H)-yl)Acetamide Trifluoroacetate], for which the inhibition constant (Ki) was under 500 nM.

Consider `Cc1ccccc1-c1cnc(NCCc2ccccc2)c(=O)n1CC(=O)NCc1cc2cnccc2[nH]1` [Compound 87, N-((1H-Pyrrolo[3,2-c]pyridin-2-yl)methyl)-2-(2-oxo-3-(phenethylamino)-6-(o-tolyl)pyrazin-1(2H)-yl)acetamide trifluoroacetate], for which the inhibitory constant (Ki) was under 500 nM.

For the compound `O=C(Cn1c(-c2cccc(CO)c2)cnc(NCCc2ccccc2)c1=O)NCc1cc2cnccc2[nH]1` [Compound 88, N-((1H-Pyrrolo[3,2-c]pyridin-2-yl)methyl)-2-(6-(3-(hydroxymethyl)phenyl)-2-oxo-3-(phenethylamino)pyrazin-1(2H)-yl)acetamide trifluoroacetate], the Ki was under 500 nM.
